{
  "source": "patent US10945432B2",
  "about": "“Active compound combinations comprising a (thio)carboxamide derivative and a fungicidal compound” (BAYER CROPSCIENCE AKTIENGESELLSCHAFT, priority 2013, dated 2021)",
  "assay_type_in_all_cases": "in vivo",
  "key": {"[1]": {"tested_on": "Botrytis cinerea", "test": "Botrytis test (beans)/preventive", "conditions": "Table B1, 2 days after inoculation", "procedure": "(§1) • Solvent: 24.5 parts by weight of acetone • 24.5 parts by weight of dimethylacetamide • Emulsifier: 1 part by weight of alkylaryl polyglycol ether\n(§2) To produce a suitable preparation of active compound, 1 part by weight of active compound is mixed with the stated amounts of solvent and emulsifier, and the concentrate is diluted with water to the desired concentration.\nTo test for preventive activity, young plants are sprayed with the preparation of active compound. After the spray coating has dried on, 2 small pieces of agar covered with growth of Botrytis cinerea are placed on each leaf. The inoculated plants are placed in a darkened chamber at 20° C. and a relative atmospheric humidity of 100%.\n2 days after the inoculation, the size of the lesions on the leaves is evaluated. 0% means an efficacy which corresponds to that of the untreated control, while an efficacy of 100% means that no disease is observed."}, "[2]": {"tested_on": "Pyrenophora teres", "test": "Pyrenophora teres-test (barley)/preventive", "conditions": "Table C1, 8 days after inoculation", "procedure": "(§3) • Solvent: 49 parts by weight of N,N-dimethylacetamide • Emulsifier: 1 part by weight of alkylaryl polyglycol ether\n(§4) To produce a suitable preparation of active compound, 1 part by weight of active compound or active compound combination is mixed with the stated amounts of solvent and emulsifier, and the concentrate is diluted with water to the desired concentration.\n(§5) To test for preventive activity, young plants are sprayed with the preparation of active compound or active compound combination at the stated rate of application. After the spray coating has been dried, the plants are sprayed with a spore suspension of Pyrenophora teres. The plants remain for 48 hours in an incubation cabinet at approximately 20° C. and a relative atmospheric humidity of approximately 100%. The plants are placed in the greenhouse at a temperature of approximately 20° C. and a relative atmospheric humidity of approximately 80%.\nThe test is evaluated 8 days after the inoculation. 0% means an efficacy which corresponds to that of the untreated control, while an efficacy of 100% means that no disease is observed."}, "[3]": {"tested_on": "Venturia inaequalis", "test": "Venturia test (apples)/preventive", "conditions": "10 days after inoculation", "procedure": "as §1, §2\nTo test for preventive activity, young plants are sprayed with the preparation of active compound at the stated rate of application. After the spray coating has dried on, the plants are inoculated with an aqueous conidia suspension of the causal agent of apple scab (Venturia inaequalis) and then remain for 1 day in an incubation cabinet at approximately 20° C. and a relative atmospheric humidity of 100%. The plants are then placed in a greenhouse at approximately 21° C. and a relative atmospheric humidity of approximately 90%.\nThe test is evaluated 10 days after the inoculation. 0% means an efficacy which corresponds to that of the untreated control, while an efficacy of 100% means that no disease is observed."}, "[4]": {"tested_on": "Septoria tritici", "test": "Septoria tritici-test (wheat)/preventive", "conditions": "21 days after inoculation", "procedure": "as §3, §4\nas §5, with “suspension of Septoria tritici. The plants” for “suspension of Pyrenophora teres. The plants”, “of approximately 100% and afterwards for 60 hours at approximately 15° C. in a translucent incubation cabinet at a relative atmospheric humidity of approximately 100%. The” for “of approximately 100%. The”, “of approximately 15° C. and” for “of approximately 20° C. and”\nThe test is evaluated 21 days after the inoculation. 0% means an efficacy which corresponds to that of the untreated control, while an efficacy of 100% means that no disease is observed."}, "[5]": {"tested_on": "Sphaerotheca fuliginea", "test": "Sphaerotheca test (cucumbers)/preventive", "conditions": "Table E1, 7 days after inoculation", "procedure": "as §1, §2\n(§6) To test for preventive activity, young plants are sprayed with the preparation of active compound at the stated rate of application. After the spray coating has dried on, the plants are inoculated with an aqueous spore suspension of Sphaerotheca fuliginea. The plants are then placed in a greenhouse at approximately 23° C. and a relative atmospheric humidity of approximately 70%.\nThe test is evaluated 7 days after the inoculation. 0% means an efficacy which corresponds to that of the untreated control, while an efficacy of 100% means that no disease is observed."}, "[6]": {"tested_on": "Alternaria solani", "test": "Alternaria test (tomatoes)/preventive", "conditions": "3 days after inoculation", "procedure": "as §1, §2\nas §6, with “Alternaria solani.” for “Sphaerotheca fuliginea.”, “an incubation cabinet” for “a greenhouse”, “20°” for “23°”, “100%.” for “approximately 70%.”\nThe test is evaluated 3 days after the inoculation. 0% means an efficacy which corresponds to that of the untreated control while an efficacy of 100% means that no disease is observed."}},
  "data": [
    {"smiles": "CC1(C)N=C(c2cnc3ccccc3c2)c2ccccc2C1(F)F", "note": "[b27, 3-(4,4-difluoro-3,3-dimethyl-3,4-dihydroisoquinolin-1-yl)quinoline]", "values": [
      {"measurement": "Efficacy in % found", "setting": "[1]; 1 ppm a.i.", "result": 60, "unit": "%"},
      {"measurement": "Efficacy in % found", "setting": "[2]; 60 ppm a.i.", "result": 38, "unit": "%"},
      {"measurement": "Efficacy in % found", "setting": "[2]; 240 ppm a.i.", "result": 75, "unit": "%"},
      {"measurement": "Efficacy in % found", "setting": "[3]; Table F1, 0.5 ppm a.i.", "result": 23, "unit": "%"}
    ]},
    {"smiles": "CON(C(=O)c1cn(C)nc1C(F)F)C(C)Cc1c(Cl)cc(Cl)cc1Cl", "note": "(centres unmarked) [b29, 3-(difluoromethyl)-N-methoxy-1-methyl-N-[1-(2,4,6-trichlorophenyl)propan-2-yl]-1H-pyrazole-4-carboxamide]", "values": [
      {"measurement": "Efficacy in % found", "setting": "[4]; Table D1, 5 ppm a.i.", "result": 94, "unit": "%"},
      {"measurement": "Efficacy in % found", "setting": "[5]; 0.25 ppm a.i.", "result": 30, "unit": "%"},
      {"measurement": "Efficacy in % found", "setting": "[5]; 1 ppm a.i.", "result": 30, "unit": "%"}
    ]},
    {"smiles": "Cc1nn(C)c(Nc2c(F)cc(Cl)cc2F)c1-c1ccc(F)cc1Cl", "note": "[b39, N-(4-chloro-2,6-difluorophenyl)-4-(2-chloro-4-fluorophenyl)-1,3-dimethyl-1H-pyrazol-5-amine]", "values": [
      {"measurement": "Efficacy in % found", "setting": "[4]; Table D1, 60 ppm a.i.", "result": 50, "unit": "%"},
      {"measurement": "Efficacy in % found", "setting": "[4]; Table D1, 240 ppm a.i.", "result": 88, "unit": "%"},
      {"measurement": "Efficacy in % found", "setting": "[6]; Table A1, 1 ppm a.i.", "result": 17, "unit": "%"}
    ]},
    {"smiles": "CC(O)(Cn1cncn1)c1ccc(Oc2ccc(Cl)cc2)cc1C(F)(F)F", "note": "(centres unmarked) [b40, 2-[4-(4-chlorophenoxy)-2-(trifluoromethyl)phenyl]-1-(1H-1,2,4-triazol-1-yl)propan-2-ol]", "values": [
      {"measurement": "Efficacy in % found", "setting": "[6]; Table A1, 2.5 ppm a.i.", "result": 66, "unit": "%"},
      {"measurement": "Efficacy in % found", "setting": "[5]; 2.5 ppm a.i.", "result": 37, "unit": "%"},
      {"measurement": "Efficacy in % found", "setting": "[5]; 10 ppm a.i.", "result": 85, "unit": "%"}
    ]},
    {"smiles": "CCC(O)(Cn1cncn1)c1ccc(Oc2ccc(Cl)cc2)cc1C(F)(F)F", "note": "(centres unmarked) [b41, 2-[4-(4-chlorophenoxy)-2-(trifluoromethyl)phenyl]-1-(1H-1,2,4-triazol-1-yl)butan-2-ol]", "values": [
      {"measurement": "Efficacy in % found", "setting": "[1]; 10 ppm a.i.", "result": 36, "unit": "%"},
      {"measurement": "Efficacy in % found", "setting": "[2]; 15 ppm a.i.", "result": 25, "unit": "%"},
      {"measurement": "Efficacy in % found", "setting": "[2]; 60 ppm a.i.", "result": 0, "unit": "%"}
    ]},
    {"smiles": "CC1(C)CN=C(c2cnc3ccccc3c2)c2cccc(F)c2O1", "note": "[b45, 9-fluoro-2,2-dimethyl-5-(quinolin-3-yl)-2,3-dihydro-1,4-benzoxazepine]", "values": [
      {"measurement": "Efficacy in % found", "setting": "[4]; Table D2, 50 ppm a.i.", "result": 0, "unit": "%"},
      {"measurement": "Efficacy in % found", "setting": "[4]; Table D2, 200 ppm a.i.", "result": 0, "unit": "%"},
      {"measurement": "Efficacy in % found", "setting": "[6]; Table A2, 0.5 ppm a.i.", "result": 24, "unit": "%"},
      {"measurement": "Efficacy in % found", "setting": "[3]; Table F2, 1 ppm a.i.", "result": 0, "unit": "%"}
    ]},
    {"smiles": "Cc1nc2c(F)cccc2cc1Oc1cccc(F)c1C(C)(C)O", "note": "[b46, 2-{2-fluoro-6-[(8-fluoro-2-methylquinolin-3-yl)oxy]phenyl}propan-2-ol]", "values": [
      {"measurement": "Efficacy in % found", "setting": "[4]; Table D2, 50 ppm a.i.", "result": 0, "unit": "%"},
      {"measurement": "Efficacy in % found", "setting": "[4]; Table D2, 200 ppm a.i.", "result": 67, "unit": "%"},
      {"measurement": "Efficacy in % found", "setting": "[6]; Table A2, 0.5 ppm a.i.", "result": 18, "unit": "%"},
      {"measurement": "Efficacy in % found", "setting": "[6]; Table A2, 1 ppm a.i.", "result": 24, "unit": "%"},
      {"measurement": "Efficacy in % found", "setting": "[3]; Table F2, 0.5 ppm a.i.", "result": 18, "unit": "%"}
    ]},
    {"smiles": "Cc1nc2c(F)c(F)ccc2cc1Oc1cccc(F)c1C(C)(C)O", "note": "[b47, 2-{2-[(7,8-difluoro-2-methylquinolin-3-yl)oxy]-6-fluorophenyl}propan-2-ol]", "values": [
      {"measurement": "Efficacy in % found", "setting": "[4]; Table D2, 50 ppm a.i.", "result": 0, "unit": "%"},
      {"measurement": "Efficacy in % found", "setting": "[4]; Table D2, 200 ppm a.i.", "result": 67, "unit": "%"},
      {"measurement": "Efficacy in % found", "setting": "[6]; Table A2, 0.5 ppm a.i.", "result": 9, "unit": "%"},
      {"measurement": "Efficacy in % found", "setting": "[6]; Table A2, 1 ppm a.i.", "result": 29, "unit": "%"},
      {"measurement": "Efficacy in % found", "setting": "[3]; Table F2, 0.5 ppm a.i.", "result": 30, "unit": "%"}
    ]},
    {"smiles": "CC(C)c1ccc(Cl)cc1CN(C(=O)c1c(C(F)F)nn(C)c1F)C1CC1", "note": "[compound A5, N-(5-chloro-2-isopropylbenzyl)-N-cyclopropyl-3-(difluoromethyl)-5-fluoro-1-methyl-1H-pyrazole-4-carboxamide]", "values": [
      {"measurement": "Efficacy in % found", "setting": "[4]; Table D1, 5 ppm a.i.", "result": 50, "unit": "%"},
      {"measurement": "Efficacy in % found", "setting": "[4]; Table D1, 10 ppm a.i.", "result": 50, "unit": "%"},
      {"measurement": "Efficacy in % found", "setting": "[4]; Table D2, 10 ppm a.i.", "result": 17, "unit": "%"},
      {"measurement": "Efficacy in % found", "setting": "[4]; Table D2, 20 ppm a.i.", "result": 67, "unit": "%"},
      {"measurement": "Efficacy in % found", "setting": "[1]; 1 ppm a.i.", "result": 15, "unit": "%"},
      {"measurement": "Efficacy in % found", "setting": "[6]; Table A1, 0.5 ppm a.i.", "result": 38, "unit": "%"},
      {"measurement": "Efficacy in % found", "setting": "[6]; Table A1, 1 ppm a.i.", "result": 30, "unit": "%"},
      {"measurement": "Efficacy in % found", "setting": "[6]; Table A2, 0.5 ppm a.i.", "result": 0, "unit": "%"},
      {"measurement": "Efficacy in % found", "setting": "[6]; Table A2, 1 ppm a.i.", "result": 41, "unit": "%"},
      {"measurement": "Efficacy in % found", "setting": "[5]; 0.5 ppm a.i.", "result": 30, "unit": "%"},
      {"measurement": "Efficacy in % found", "setting": "[5]; 1 ppm a.i.", "result": 37, "unit": "%"},
      {"measurement": "Efficacy in % found", "setting": "[2]; 10 ppm a.i.", "result": 13, "unit": "%"},
      {"measurement": "Efficacy in % found", "setting": "[3]; Table F1, 0.5 ppm a.i.", "result": 0, "unit": "%"},
      {"measurement": "Efficacy in % found", "setting": "[3]; Table F1, 1 ppm a.i.", "result": 0, "unit": "%"},
      {"measurement": "Efficacy in % found", "setting": "[3]; Table F2, 0.5 ppm a.i.", "result": 0, "unit": "%"},
      {"measurement": "Efficacy in % found", "setting": "[3]; Table F2, 1 ppm a.i.", "result": 0, "unit": "%"},
      {"measurement": "Efficacy in % found", "setting": "[3]; Table F2, 2 ppm a.i.", "result": 29, "unit": "%"}
    ]}
  ]
}
